Assay results as given in patent US7022484B2, “Methods for treating neuropathological states and neurogenic inflammatory states and methods for identifying compounds useful therein” (Board of Regents, The University of Texas System, priority 2000, dated 2006).

Assays:
rat arthritis model [1] = assay: Paw withdrawal latency (PWL) to radiant heat in rat kaolin/carrageenan knee joint inflammation model; format: in vivo; conditions: for development of secondary hyperalgesia: spinal microdialysis pre-treatment, 4 hours after induction of arthritis
Experimental: All studies followed the guidelines of the Institute Animal Care and Use Committee, in accordance with the guidelines of the National Institutes of Health. All animals were hosted in a room with a constant ambient temperature of 22° C. and 12 hour light/dark cycle with free access to food and water. Eighty-five Sprague-Dawley rats (250–300 grams) total were used in experiments conducted for biochemical, behavioral, and immunocytochemistry studies. […] On Day 2 baseline behavioral testing was followed by infusion of agents for 1.5 hours (pretreatment) prior to induction of knee joint inflammation under brief anesthesia. Behavioral testing was repeated 4 hours after induction of joint inflammation. Anesthetized animals were either transcardially perfused with aldehydes for immunohistochemical studies or fresh, frozen tissues collected for biochemical studies.
A microdialysis fiber was implanted into the spinal dorsal horn of anesthetized rats (sodium pentobarbital, 50 mg/kg) one day prior to the induction of arthritis according to the procedure of Skilling et al. (J. Neurochem., 51:127–132 (1988)), as described in Sluka et al. (Neurosci. Lett., 145:141–144 (1992)). Briefly, a small midline incision was made in the skin over the T12 vertebral level. The vertebrae were cleared of muscle and two 1 millimeter (mm) holes were drilled in the lateral aspect of both sides of the T12 vertebrae to expose the L4 spinal segment. A microdialysis fiber ([…], 45,000 MW cut-off, Hospal, AN69, Hospal Industrie, Meyzieu, France), was passed transversely across the deep dorsal horn and stabilized with dental cement. The microdialysis fiber was then passed through the holes in the vertebrae and transversely through the dorsal horn of the spinal cord. A 2 mm section of the microdialysis fiber lies in the dorsal horn at the level of L3–4 segment. The tubing was coated with epoxy except for a permeable portion passing through the spinal grey matter. The microdialysis fiber was connected to PE20 tubing (Becton Dickinson and Company, San Mateo, Calif.) which was tunneled under the skin to the nape of the neck. Alternatively as a systemic control for drug administration, the microdialysis fiber was implanted only in the subcutaneous tissue over the back muscle and tunneled to the neck. Artificial cerebrospinal fluid (aCSF) was made as described by Sorkin et al. (J. Neurosci. Methods, 23, 131–138 (1988)) and was infused (5 microliters/minute) for 1.5 hours and then the tube was heat-sealed for use on the following day.
Dose response curves were generated for Genistein with animals receiving Genistein spinally at concentration of 0.2 mM (n=3), 0.5 mM (n=3), 1 mM (n=9), and 2 mM (n=3). Animals received Lavendustin A or B spinally at concentrations of 0.1 mM (n=3), 0.5 mM (n=3), and 1 mM (n=5) as a positive and negative control for Genistein. […] Daidzein was tested at a dose of 1 mM (n=3). […] Eight additional animals received the vehicle, 50% DMSO in aCSF, as a control.
(§1) An acute inflammatory response restricted to the knee joint can be induced by the injection of 3% kaolin and 3% carrageenan (in sterile saline; 0.1 ml; pH 7.4) into the joint cavity while the animal is briefly anesthetized with sodium methohexital (Brevital, 60 mg/kg, i.p.). Kaolin and carrageenan were obtained from Fisher Scientific, St. Louis, Mo. The knee joint is flexed manually until the rat awakes (approximately 5–10 minutes). In this arthritis model in the awake rat, localized joint swelling, as well as limping and guarding of the limb, are well developed at 4 hours (Sluka et al., Pain, 59, 95–100 (1994)) when behavioral testing begins.
Fifty-five rats were used for behavioral studies. Four hours after induction of the arthritis, the joint is swollen and increased withdrawal responses to radiant heat and spontaneous guarding of the limb were noted. The increased responsiveness to noxious stimuli indicates the presence of secondary hyperalgesia. […]

TNFα = TNFα release by ELISA from SW982 synovial cells treated with NMDA and ACPD; format: cell-based, human; conditions: 24 hours, NMDA (5 mM) and ACPD (5 mM), K252a (100 nM)
Experimental: The cultured cell lines used in these studies were the human neuroblastoma clonal line, SHSY5Y, and the human synovial sarcoma clonal line, SW982, both available through the American Tissue Type Culture Collection (item number CRL 2266 and HTB-93, respectively). Cells were grown in Dulbecco's Modification of Eagles Medium (DMEM) without L-glutamine, with 4.5 grams/Liter glucose, and with 10% bovine fetal serum in a tissue culture incubator at 37° C. in a gaseous mixture of O2/CO2. Cells were routinely split as necessary to maintain proper cell density. Cells were removed from plates by adding TRYPSIN/EDTA in Hank's Balanced Salt solution. After cell counts, approximately 10,000 cells were plated per well in a culture dish. For experiments, the cells were plated into 35 mm Petri dishes or 6- or 24-well plates as needed.
For detection of released Tumor Necrosis Factor alpha (TNFα) and some western blot experiments, cells were exposed to the two glutamate agonists NMDA (5 mM) and ACPD (5 mM), in the presence or absence of the tyrosine kinase inhibitors Genistein […] or K252a (100 nM). […]
The release of the inflammatory mediator and initiator of inflammatory cascades, TNFα was measured by ELISA using a commercially available kit (R&D Quantikine, Catalog Number DTA50) specific for human TNFα. […]

[2] = test system: NMDA receptor subunit NR1; assay: Immunocytochemical localization of NMDA receptor subunit NR1 in spinal cord of arthritic rats; format: in vivo, rat; conditions: 4 hours, Genistein 1 mM spinal pre-treatment, cycloheximide 100 mg/kg i.p.
Source text: Cycloheximide (100 milligrams per kilogram (mg/kg) intraperitoneal (i.p.) was used in some studies to determine if the alterations observed for the NMDA NR1 receptor subunit could be attributed to newly synthesized NR1 protein.
Twenty-four rats in 3 separate groups were used for immunocytochemical studies. One group of rat (n=8) was a naive control. The other 2 groups (n=16) of rats received surgical placement of the microdialysis fiber placement. On the day after microdialysis fiber placement, the animals were treated spinally with either Genistein (1 mM) or vehicle (50% DMSO in aCSF) for 1.5 hours (n=8 for each group). Then the left knee joint of all sixteen rats was injected with 0.1 ml of kaolin and carrageenan.
Animals were anesthetized and transcardially perfused with a brief warm saline rinse followed by fixative solution (4% paraformaldehyde in 0.1 M phosphate buffer, pH 7.4). The tissues were soaked overnight in 30% buffered sucrose and cut at 30 microns on a sliding microtome. For light microscopy, the tissues from animals (n=8) were permeabilized with a 50% buffered ethanol treatment. Tissue sections were then stained immunocytochemically for glutamate receptor subunit NR1 and phospho-NR1. Primary antibodies to be used for staining include anti-NMDA NR1 NMDA receptor (0.5–1 milligrams per milliliter (mg/ml)) purchased from Chemlcon Inc. (Pittsburgh, Pa.). Other neurotransmitter and receptor primary antibodies against NMDA NR2C, mGluR1, and mGluR5 were used as stain specificity controls. The primary antibodies were diluted in phosphate buffered saline (PBS, pH 7.6) with 0.1% BSA for overnight incubation on the spinal cord tissues. After washing in PBS, the tissue sections were incubated in the appropriate secondary antibody, either anti-mouse or anti-rabbit IgG (1:100, 30 minutes) and in avidin-biotin complex (ABC, 1:100, Vector Laboratories, Burlingame, Calif.). Sections were reacted with diaminobenzidine (DAB) solution (1.5 mg/ml) as the chromogen and peroxide (0.5 mg/ml) to produce a dense reaction product. To further intensify the reaction product particularly for visualization of nuclear rings, some tissues were reacted with colloidal gold conjugated IgG and reacted with a silver chloride solution to produce an intense black reaction product (Takizawa et al., J. Histochemistry & Cytochemistry, 42, 1615–1623 (1994)).
Immunocytochemical controls included sections processed in the absence of the primary or secondary antibody or ABC reagents. The specificity of the transmitter antibodies was confirmed by appearance of a single band by Western blot. In addition to use of the C-terminus NR1 antibody from ChemIcon, an antibody directed to the N-terminus of the NR1 protein was used as control (1 mg/ml; BD PharMingen, San Diego, Calif.). […]

rat arthritis model [3] = assay: Knee joint circumference and joint temperature in kaolin/carrageenan knee joint inflammation model; format: in vivo; conditions: 4 hours after kaolin/carrageenan; spinal pre-treatment
Experimental: as §1
Knee joint circumference is measured in centimeters (cm) with a flexible tape measure around the center of the knee joint while the joint is held in extension as done with patients in the clinical setting as an indication of increases in joint volume. The knee joints of anesthetized rats are measured before (baseline) and four hours following injection of the knee joint with kaolin and carrageenan.
Temperature readings were documented numerically with a temperature probe after the rat is reanesthetized with sodium pentobarbital (50 mg/kg, i.p.) just prior to perfusion with aldehydes for histological preservation. Comparative temperature differences were made between the baseline temperature and the temperature four hours after induction of inflammation.

NMDA currents = conditions: patch clamp studies; cited from earlier work

Structure (SMILES): O=C(O)c1cc(N(Cc2ccccc2O)Cc2ccccc2O)ccc1O [Lavendustin B]
- development of secondary hyperalgesia (rat arthritis model [1]): ineffective in altering the nociceptive outcome of knee joint inflammation

Structure (SMILES): COC(=O)[C@@]1(O)C[C@H]2O[C@]1(C)n1c3ccccc3c3c4c(c5c6ccccc6n2c5c31)C(=O)NC4 [K252a]
- NMDA/ACPD-promoted release of TNFα (TNFα): completely abolished

Structure (SMILES): C[C@@H]1C[C@@H]([C@H](O)CC2CC(=O)NC(=O)C2)C(=O)[C@@H](C)C1 [Cycloheximide]
- staining for NR1 in spinal cord [2]: did not totally reduce the staining to baseline
- staining for NR1 in spinal cord ([2]; listed as cycloheximide): reduced the increase in NR1 staining by about half

Structure (SMILES): O=C(O)c1cc(N(Cc2ccccc2O)Cc2cc(O)ccc2O)ccc1O [Lavendustin A]
- most effective dose in pre-treatment animals (rat arthritis model [1]; concentration inside the microdialysis fiber, spinal administration): 0.5 mM
- PWL decrease induced by knee joint inflammation (rat arthritis model [1]; spinal microdialysis pre-treatment 1.5 hours, PWL to radiant heat 4 hours after kaolin/carrageenan): significantly (p<0.05 versus 4 hours vehicle group) attenuated the PWL decreases
- development of secondary hyperalgesia (rat arthritis model [1]): significantly abrogated the development of secondary hyperalgesia
- joint circumference (rat arthritis model [3]): expected increases
- joint temperature (rat arthritis model [3]): expected increases
- effect on NMDA currents (NMDA currents): reversibly depresses NMDA currents
